Assay results as given in patent publication US10981926B2 (Janssen Pharmaceutica NV, priority 2016, dated 2021).

Columns and labels:
rGABA-gated Cl− channel = experiment: GABA-Gated Cl Channel Antagonist Radioligand Binding Assay; set-up: species or system rat; conditions: 10 μM single point, [35S]-TBPS, cerebral cortex membrane homogenates
Procedure, shortened: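 Values give percent inhibition of control specific […] (3 nM) binding at a single 10 μM compound concentration. Cerebral cortex membranes, 120 min, 22° C, phosphate buffer pH 7.4 with 500 mM NaCl; 20 μM picrotoxinin sets nonspecific binding; filtration and scintillation read-out.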

[1] = target: T1, wild-type Androgen Receptor (AR-wt) (Homo sapiens (Human), UniProt P10275); experiment: LNCaP-AR-wt AG reporter assay (agonist mode); assay type: cell-based; conditions: for EC50: pEC50 = −Log10(EC50 in Molar), read-out: LNCaP-AR-wt AG pEC50 (converted); for Emax: read-out: LNCaP-AR-wt AG MAX % Stim
[2] = target: T2, F876L mutant Androgen Receptor (AR-F876L) (Homo sapiens (Human), UniProt P10275, F877L); experiment: LNCaP-AR-F876L ANT reporter assay (antagonist mode); assay type: cell-based; conditions: for IC50: pIC50 = −Log10(IC50 in Molar), read-out: LNCaP-AR-F876L ANT pIC50 (converted); for Emax: read-out: LNCaP-AR-F876L ANT MAX % Inh
[3] = target: T1, wild-type Androgen Receptor (AR-wt); experiment: LNCaP-AR-wt ANT reporter assay (antagonist mode); assay type: cell-based; conditions: for IC50: pIC50 = −Log10(IC50 in Molar), read-out: LNCaP-AR-wt ANT pIC50 (converted); for Emax: read-out: LNCaP-AR-wt ANT MAX % Inh
[4] = target: T2, F876L mutant Androgen Receptor (AR-F876L); experiment: LNCaP-AR-F876L AG reporter assay (agonist mode); assay type: cell-based; conditions: for EC50: pEC50 = −Log10(EC50 in Molar), read-out: LNCaP-AR-F876L AG pEC50 (converted); for Emax: read-out: LNCaP-AR-F876L AG MAX % Stim
[5] = tested on: androgen dependent signaling (androgen sensitive organs); experiment: Hershberger Assay; assay type: in vivo, rat; conditions: 3 mg/kg (positive control), 10 days, with TP 0.4 mg/kg, castrated rats, mean ± SD (n=6)
Description: The effect of AR antagonists on androgen dependent signaling in vivo was assessed using the Hershberger assay. In this assay, peripubertal castrated male Sprague-Dawley rats were administered AR antagonists described herein in the presence of testosterone (0.4 mg/kg testosterone propionate) and the weights of androgen dependent organs measured. Dosing was continued for 10 days and measurements taken 24 h after the last dose. The extent of antagonism of AR and consequent inhibition of organ growth was evaluated by comparison to the castration control. Compounds of Formula (I) were dosed orally QD and an endpoint assessment made by change in weight of 5 androgen sensitive organs (ASO): Paired Cowper's Glands (CG), Seminal Vesicles with Fluids and Coagulating Glands (SVCG), Glans Penis (GP), Ventral Prostate (VP) and Levator Ani-Bulbocavernosus Complex (LABC)). According to assay guidelines, statistically significant suppression of ASO is required in 2 of 5 organs for a compound to be classified as an anti-androgen (analysis was performed by t-test/Mann-Whitney).
Unless otherwise stated, compounds defined herein were administered at 30 mg/kg and flutamide (FT), positive control, at 3 mg/kg. All compounds were co-administered with testosterone propionate (TP, 0.4 mg/kg) which was also administered alone, untreated control, (castrated only rats served as the control for complete androgen blockade). A statistically significant change in ASO achieved in at least 2 of 5 organs was indicative of an active compound.

[6] = maximum % stimulation (agonist response) over the tested concentration range
[7] = maximum % inhibition of R1881 control response over the tested concentration range
[8] = agonist mode, maximum % stimulation over tested concentration range
[9] = antagonist mode, maximum % inhibition of R1881 control response over tested concentration range

T1 sequence (P10275 whole entry): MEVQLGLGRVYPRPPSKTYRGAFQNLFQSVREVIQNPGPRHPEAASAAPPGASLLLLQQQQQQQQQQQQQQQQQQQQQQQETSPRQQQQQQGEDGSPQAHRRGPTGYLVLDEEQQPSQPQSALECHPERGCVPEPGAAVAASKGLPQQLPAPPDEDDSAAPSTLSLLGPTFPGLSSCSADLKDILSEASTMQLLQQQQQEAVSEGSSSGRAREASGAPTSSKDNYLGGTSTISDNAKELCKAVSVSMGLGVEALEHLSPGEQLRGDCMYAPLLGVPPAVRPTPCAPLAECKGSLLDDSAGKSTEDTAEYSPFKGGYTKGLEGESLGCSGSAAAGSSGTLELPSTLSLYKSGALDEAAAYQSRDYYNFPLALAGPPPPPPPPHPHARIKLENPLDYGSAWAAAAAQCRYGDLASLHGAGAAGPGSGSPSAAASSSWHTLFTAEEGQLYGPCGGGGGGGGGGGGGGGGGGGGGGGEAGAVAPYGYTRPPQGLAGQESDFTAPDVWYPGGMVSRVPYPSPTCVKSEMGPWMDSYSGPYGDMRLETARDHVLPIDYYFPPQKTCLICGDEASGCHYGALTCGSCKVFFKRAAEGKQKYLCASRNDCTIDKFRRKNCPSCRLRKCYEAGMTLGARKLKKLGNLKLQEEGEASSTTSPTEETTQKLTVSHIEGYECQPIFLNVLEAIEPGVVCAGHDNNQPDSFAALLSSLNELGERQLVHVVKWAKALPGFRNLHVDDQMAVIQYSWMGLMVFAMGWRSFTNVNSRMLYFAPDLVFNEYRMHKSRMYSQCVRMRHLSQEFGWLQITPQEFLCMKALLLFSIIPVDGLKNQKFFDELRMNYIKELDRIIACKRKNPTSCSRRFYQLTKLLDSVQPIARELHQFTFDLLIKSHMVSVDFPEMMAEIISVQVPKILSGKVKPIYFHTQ
T2 sequence (P10275 whole entry F877L): as the sequence (P10275 whole entry) above, with F877L counted along it

SMILES | rGABA-gated Cl− channel % inh @10 μM (rGABA-gated Cl− channel) | EC50 ([1]; agonist mode) | Emax [1, 6] | IC50 ([2]; antagonist mode) | Emax [2, 7] | IC50 ([3]; antagonist mode) | Emax [3, 7] | EC50 ([4]; agonist mode) | Emax [4, 6] | Emax [1, 8] | Emax [2, 9] | Emax [3, 9] | Emax [4, 8] | ASO Organ Growth (% of TP control) SVCG [5] | ASO Organ Growth (% of TP control) VP [5]
Cn1cc2cc(N3C(=S)N(c4cnc(C#N)c(C(F)(F)F)c4)C(=O)C34CCC4)ccc2n1 [Cpd 174, 5-[8-(2-methylindazol-5-yl)-5-oxo-7-thioxo-6,8-diazaspiro[3.4]octan-6-yl]-3-(trifluoromethyl)pyridine-2-carbonitrile] | 94.9% | > 15100 nM | 0% | 219 nM | 101% | 407 nM | 102% | > 15100 nM | 0.1% |  |  |  |  |  | 
COCCn1cc2cc(N3C(=S)N(c4cnc(C#N)c(OC)c4)C(=O)C34CCC4)ccc2n1 [Cpd 175, 3-methoxy-5-[8-[2-(2-methoxyethyl)indazol-5-yl]-5-oxo-7-thioxo-6,8-diazaspiro[3.4]octan-6-yl]pyridine-2-carbonitrile] | 25.6% | > 15100 nM | 0.1% | 141 nM | 101% | 269 nM | 101% | > 15100 nM | 0% |  |  |  |  |  | 
N#Cc1ncc(N2C(=O)C3(CCC3)N(c3ccc4nn(C5CCNCC5)cc4c3)C2=S)cc1Cl [Cpd 180, 3-chloro-5-[5-oxo-8-[2-(4-piperidyl)indazol-5-yl]-7-thioxo-6,8-diazaspiro[3.4]octan-6-yl]pyridine-2-carbonitrile] | 36.7% | > 15100 nM | 0.2% | 97.7 nM | 104% | 219 nM | 106% | > 15100 nM | 0.2% |  |  |  |  |  | 
CN1CCC(n2ncc3cc(N4C(=S)N(c5cnc(C#N)c(Cl)c5)C(=O)C45CCC5)ccc32)CC1 [Cpd 183, 3-chloro-5-[8-[1-(1-methyl-4-piperidyl)indazol-5-yl]-5-oxo-7-thioxo-6,8-diazaspiro[3.4]octan-6-yl]pyridine-2-carbonitrile] | 37.9% | > 15100 nM | 0.3% | 275 nM | 101% | 513 nM | 100% | > 15100 nM | -0.1% |  |  |  |  |  | 
C[N@+]1([O-])CC[C@@H](Oc2ccc(N3C(=S)N(c4cnc(C#N)c(C(F)(F)F)c4)C(=O)C34CCC4)cc2)CC1 [Cpd 191, 5-[8-[4-(1-methyl-1-oxido-piperidin-1-ium-4-yl)oxyphenyl]-5-oxo-7-thioxo-6,8-diazaspiro[3.4]octan-6-yl]-3-(trifluoromethyl)pyridine-2-carbonitrile] | 47.9% | > 15100 nM |  | 1120 nM |  | 1380 nM |  | > 15100 nM |  | -0.2% | 99.8% | 99.4% | 0% |  | 
N#Cc1ncc(N2C(=O)C3(CCC3)N(c3ccc(CN4CCNCC4)cc3)C2=S)cc1Cl [Cpd 207, 3-chloro-5-[5-oxo-8-[4-(piperazin-1-ylmethyl)phenyl]-7-thioxo-6,8-diazaspiro[3.4]octan-6-yl]pyridine-2-carbonitrile] | 27.9% | > 15100 nM |  | 380 nM |  | 407 nM |  | > 15100 nM |  | 0% | 100% | 101% | 0% |  | 
COc1cc(N2C(=O)C3(CCC3)N(c3ccc4c(cnn4C4CCN(CCO)CC4)c3)C2=S)cnc1C#N [Cpd 225, 5-[8-[1-[1-(2-hydroxyethyl)-4-piperidyl]indazol-5-yl]-5-oxo-7-thioxo-6,8-diazaspiro[3.4]octan-6-yl]-3-methoxy-pyridine-2-carbonitrile] | 18.6% | > 15100 nM |  | 209 nM |  | 339 nM |  | > 15100 nM |  | 0.4% | 100% | 101% | 0.5% |  | 
N#Cc1ncc(N2C(=O)C3(CCC3)N(c3ccc(CC4CCC(N)CC4)cc3)C2=S)cc1C(F)(F)F (centres unmarked) [Cpd 233, 5-[8-[4-[(4-aminocyclohexyl)methyl]phenyl]-5-oxo-7-thioxo-6,8-diazaspiro[3.4]octan-6-yl]-3-(trifluoromethyl)pyridine-2-carbonitrile] | 80.2% | > 15100 nM |  | 186 nM |  | 240 nM |  | > 15100 nM |  | -0.2% | 103% | 108% | 0% |  | 
N#Cc1ncc(N2C(=O)C3(CCC3)N(c3ccc(CC4CCNCC4)cc3)C2=S)cc1C(F)(F)F [Cpd 234, 5-[5-oxo-8-[4-(4-piperidylmethyl)phenyl]-7-thioxo-6,8-diazaspiro[3.4]octan-6-yl]-3-(trifluoromethyl)pyridine-2-carbonitrile] | 57.4% | > 15100 nM |  | 257 nM |  | 479 nM |  | > 15100 nM |  | 0.1% | 102% | 100% | 0% |  | 
N#Cc1ncc(N2C(=O)C3(CCC3)N(c3ccc(SC4CCNCC4)cc3)C2=S)cc1C(F)(F)F [Cpd 240, 5-[5-oxo-8-[4-(4-piperidylsulfanyl)phenyl]-7-thioxo-6,8-diazaspiro[3.4]octan-6-yl]-3-(trifluoromethyl)pyridine-2-carbonitrile] | 44.7% | > 15100 nM |  | 224 nM |  | 457 nM |  | > 15100 nM |  | 1% | 105% | 106% | 0% |  | 
CN1CCOC(c2ccc(N3C(=S)N(c4cnc(C#N)c(C(F)(F)F)c4)C(=O)C34CCC4)cc2)C1 (centres unmarked) [Cpd 241, 5-[8-[4-(4-methylmorpholin-2-yl)phenyl]-5-oxo-7-thioxo-6,8-diazaspiro[3.4]octan-6-yl]-3-(trifluoromethyl)pyridine-2-carbonitrile] | 87.4% | > 15100 nM |  | 158 nM |  | 224 nM |  | > 15100 nM |  | -0.1% | 103% | 103% | 1.1% |  | 
CN1CCC(Sc2ccc(N3C(=S)N(c4cnc(C#N)c(C(F)(F)F)c4)C(=O)C34CCC4)cc2)CC1 [Cpd 242, 5-[8-[4-[(1-methyl-4-piperidyl)sulfanyl]phenyl]-5-oxo-7-thioxo-6,8-diazaspiro[3.4]octan-6-yl]-3-(trifluoromethyl)pyridine-2-carbonitrile] | 60.2% | > 15100 nM |  | 245 nM |  | 562 nM |  | > 15100 nM |  | 0.1% | 104% | 99.9% | -0.1% |  | 
N#Cc1ncc(N2C(=O)C3(CCC3)N(c3ccc(C4CNCCO4)cc3)C2=S)cc1C(F)(F)F (centres unmarked) [Cpd 243, 5-[8-(4-morpholin-2-ylphenyl)-5-oxo-7-thioxo-6,8-diazaspiro[3.4]octan-6-yl]-3-(trifluoromethyl)pyridine-2-carbonitrile] | 57.2% | > 15100 nM |  | 347 nM |  | 1620 nM |  | > 15100 nM |  | 0.2% | 100% | 101% | 0.7% |  | 
CC(C)C(=O)Nc1ccc([N+](=O)[O-])c(C(F)(F)F)c1 [Flutamide, flutamide, reference compound] |  |  |  |  |  |  |  |  |  |  |  |  |  | 16.6 ± 16.3 % of TP control | 24.4 ± 35.5 % of TP control
